In patent publication US5945508A, “Substance P treatment for immunostimulation” (priority 1997, dated 1999):

How the values were obtained:
[1] = system: spleen, thymus and bone marrow cells; test: JP-8 jet fuel exposed mice, cell numbers (FIGS. 1-3); assay type: in vivo, C57BL6 mice; settings: 1 micromolar aerosol 15 minutes after each exposure
Excerpt: Since mice are nose-breathers, they were exposed to the aerosol/vapor mixture via nose-only presentation while they were held in individual loading tubes. The tubes were nose-fitted to receiving adaptors that originated from the common anodized aluminum exposure chamber (volume 0.3 m^3, IN-TOX, Albuquerque, N. Mex.). Noses were positioned in the exposure ports to minimize systemic absorption that might occur during total body exposure or through the process of self-grooming after exposure. The mice were rotated on a daily basis through the 24-adaptor positions of the exposure chamber. This was done to minimize proximity to the jet fuel source as a variable in exposure concentration or composition. Passive entrainment of the jet fuel aerosol/vapor mix and room air through the IN-TOX chamber was conducted by vacuum (15 liters/min). The vacuum was applied to the exposure chamber on the side opposite the fuel source. Animal exposure ports not in use were sealed during the exposure period. Longitudinal controls were sham-exposed in a manner identical to those receiving jet fuel, except that only room air was introduced into the exposure chamber. The exposure chamber was thoroughly cleaned prior to the longitudinal control group's exposure.
The substance P aerosol therapy was performed at the completion of the JP-8 jet fuel exposure. The nebulizer was modified with clean hoses and a new sonication crucible. […] The substance P aerosol therapy was conducted for the same seven day period over a total time period of nine days as the JP-8 jet fuel exposure regimen.

[2] = system: lymphocyte subpopulations; test: Flow cytometric analyses (FACS); assay type: in vivo, C57B16 mice
Procedure: At 24 hours after the last exposure, the animals were sacrificed and the effects of exposure on the immune system examined. Immune organs (spleen, thymus, blood, lymph nodes and bone marrow) were recovered and analyzed for effects on organ weight, total cell numbers, immune cell populations (by differentials), and lymphocyte subpopulations (by flow cytometry). Assays were also performed to examine the effects of exposure on immune function. […] Similar effects on immune cell subpopulations were also observed in lymph nodes. In the thymus it appeared that the immature CD4^+ CD8^+ cells were differentially lost due to exposure. […] However, these effects are prevented or ameliorated by treatment of the animals with Substance P.
One- and two-color FACS analyses are performed using a Becton-Dickinson FACStar Plus flow cytometer. Cells are stained with the indicated monoclonal antibodies according to standard procedures (Harris et al., id). Cells alone and cells reacted with conjugated isotype control, irrelevant mAbs are used as controls. Data is presented as the percentage of cells staining positive for each individual mAb.

[3] = system: murine melanoma B16 cancer cells; test: B16 melanoma lung tumor colonies after tail vein injection; assay type: in vivo, mice; settings: for mean number of tumor colonies observed in both lungs: 1×10^4 B16 cells/mouse, 4 weeks post-injection; for reduction in tumors: versus controls
Excerpt: The mice were infected with syngeneic murine melanoma B16 cancer cells by tail vein injection. The dose was 1×10^4 B16 tumor cells/mouse. […] The second group of mice was given their substance P aerosol therapy starting one week after the injection of the B16 cells. The aerosol therapy lasted for one week. Both groups of mice and their corresponding controls (injection with B16 cells and no substance P therapy) were killed at 4 weeks post-injection with B16 cells. The data is presented as the mean number of tumor colonies observed in both lungs.

[4] = JP-8 1000 mg/m^3 + SP, nSP (1 nM), CP or RP

## Substance P [SP]
[1]; JP-8 500 or 2500 mg/m^3 7 days
  effect on spleen cell number (FIG. 1): totally reverse the effect of the jet fuel on the spleen cell number
[1]; JP-8 exposed mice
  effect on bone marrow cells (FIG. 3): augments the stimulation substantially
  effect on thymus cell number (FIG. 2): substantially reverses the effect on cell number
[2]; JP-8 250 mg/m^3 + SP
  BM CD3 positive cells: 13%
  BM CD4 positive cells: 10%
  BM CD8 positive cells: 3%
  BM CD45 positive cells: 48%
  BM MAC1 positive cells: 10%
  LN CD3 positive cells: 85%
  LN CD4 positive cells: 48%
  LN CD8 positive cells: 12%
  LN CD45 positive cells: 13%
  LN MAC1 positive cells: 1%
  PBL CD3 positive cells: 59%
  PBL CD4 positive cells: 15%
  PBL CD8 positive cells: 6%
  PBL CD45 positive cells: 16%
  PBL MAC1 positive cells: 1%
  Spleen CD3 positive cells: 62%
  Spleen CD4 positive cells: 27%
  Spleen CD8 positive cells: 3%
  Spleen CD45 positive cells: 21%
  Spleen MAC1 positive cells: 1%
  Thymus CD3 positive cells: 24%
  Thymus DN cells: 5%
  Thymus DP cells: 68%
  Thymus SP4 cells: 22%
  Thymus SP8 cells: 5%
[2]; [4]
  BM CD3 positive cells: 14%
  BM CD4 positive cells: 9%
  BM CD8 positive cells: 2%
  BM CD45 positive cells: 31%
  BM MAC1 positive cells: 26%
  LN CD3 positive cells: 86%
  LN CD4 positive cells: 29%
  LN CD8 positive cells: 11%
  LN CD45 positive cells: 22%
  LN MAC1 positive cells: 0%
  PBL CD3 positive cells: 61%
  PBL CD4 positive cells: 23%
  PBL CD8 positive cells: 10%
  PBL CD45 positive cells: 22%
  PBL MAC1 positive cells: 3%
  Spleen CD3 positive cells: 34%
  Spleen CD4 positive cells: 18%
  Spleen CD8 positive cells: 10%
  Spleen CD45 positive cells: 20%
  Spleen MAC1 positive cells: 5%
  Thymus CD3 positive cells: 20%
  Thymus DN cells: 10%
  Thymus DP cells: 65%
  Thymus SP4 cells: 16%
  Thymus SP8 cells: 6%
[2]; JP-8 2500 mg/m^3 + SP
  BM CD3 positive cells: 6%
  BM CD4 positive cells: 3%
  BM CD8 positive cells: 6%
  BM CD45 positive cells: 24%
  BM MAC1 positive cells: 34%
  Spleen CD3 positive cells: 38%
  Spleen CD4 positive cells: 26%
  Spleen CD8 positive cells: 14%
  Spleen CD45 positive cells: 31%
  Spleen MAC1 positive cells: 3%
  Thymus CD3 positive cells: 16%
  Thymus DN cells: 19%
  Thymus DP cells: 64%
  Thymus SP4 cells: 15%
  Thymus SP8 cells: 5%
[2]; dose 0 (no JP-8) + SP or CP
  BM CD3 positive cells: 12%
  BM CD4 positive cells: 11%
  BM CD8 positive cells: 1%
  BM CD45 positive cells: 48%
  Spleen CD3 positive cells: 42%
  Spleen CD4 positive cells: 26%
  Spleen CD8 positive cells: 11%
  Spleen CD45 positive cells: 23%
  Spleen MAC1 positive cells: 1%
  Thymus CD3 positive cells: 10%
  Thymus DN cells: 7%
  Thymus DP cells: 84%
  Thymus SP4 cells: 6%
  Thymus SP8 cells: 2%
[3]; 1 μM SP aerosol 15 min/day 7 days starting immediately (next day)
  mean number of tumor colonies observed in both lungs: 39
[3]; SP aerosol for one week starting one week after injection
  mean number of tumor colonies observed in both lungs: 1
[3]; therapy starting immediately after B16 cells injection
  reduction in tumors: 62.9%
[3]; therapy starting one week after B16 cells injection
  reduction in tumors: 97.0%
